Patent US20050256034A1, “Dioxolane analogs for improved inter-cellular delivery” (priority 2000, published 2005)

Tests used:
recombinant hCNT1 = target: T1, recombinant hCNT1 (Homo sapiens, UniProt O00337); assay: Uptake by recombinant transporter in transiently transfected HeLa cells; assay type: cell-based; details: 10 μM, 100 μM dilazep
T1 construct: expressed in transfected cells; host or cells: HeLa cells, transient transfection with pcDNA3-hCNT1 (subcloned from pMHK2)
T1 sequence (O00337 1-649): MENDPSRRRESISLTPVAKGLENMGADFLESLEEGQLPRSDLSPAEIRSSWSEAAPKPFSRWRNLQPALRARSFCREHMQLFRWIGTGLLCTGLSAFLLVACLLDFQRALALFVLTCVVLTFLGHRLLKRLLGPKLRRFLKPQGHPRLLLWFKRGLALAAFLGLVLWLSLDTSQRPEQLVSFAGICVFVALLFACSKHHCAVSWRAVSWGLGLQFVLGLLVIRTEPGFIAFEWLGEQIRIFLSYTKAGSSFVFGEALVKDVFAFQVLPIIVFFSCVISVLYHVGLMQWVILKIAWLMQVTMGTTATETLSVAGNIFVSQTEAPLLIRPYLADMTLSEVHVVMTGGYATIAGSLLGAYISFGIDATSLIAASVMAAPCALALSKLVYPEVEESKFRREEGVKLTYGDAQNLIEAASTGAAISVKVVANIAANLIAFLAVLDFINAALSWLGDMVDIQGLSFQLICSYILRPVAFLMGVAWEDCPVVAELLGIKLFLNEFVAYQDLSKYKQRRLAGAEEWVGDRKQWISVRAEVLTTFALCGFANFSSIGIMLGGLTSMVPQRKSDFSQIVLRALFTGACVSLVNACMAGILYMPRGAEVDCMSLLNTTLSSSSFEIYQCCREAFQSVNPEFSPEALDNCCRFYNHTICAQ
Protocol: (§1) Transport assays were conducted in the presence of the equilibrative transport inhibitor, 100 μM dilazep and either in the presence ( ? ) or absence (▴) of […].sodium, and compared to HeLa cells transiently transfected with the empty vector control plasmic (▾)
(§2) Expression plasmids encoding recombinant hCNT1 and hCNT2 are prepared using conventional methods. […] The expression vectors are separately introduced into actively proliferating HeLa cells, following conventional methods. See, e.g., Fang et al (1996).
(§3) Recombinant hCNT1 and hCNT2 were separately introduced into HeLa cells by transient transfection of pcDNA3 plasmids containing the coding sequences of the relevant nucleoside transporter protein. […] Uptake of 10 μM [:H]troxacitabine was not mediated either by hCNT1 or by hCNT2.

recombinant hCNT2 = target: T2, recombinant hCNT2 (Homo sapiens, UniProt O43868); assay: as above; assay type: cell-based; details: 10 μM, 100 μM dilazep
T2 construct: expressed in transfected cells; host or cells: HeLa cells, transient transfection with pcDNA3-hCNT2 (subcloned from pMH15)
T2 sequence (O43868 1-658): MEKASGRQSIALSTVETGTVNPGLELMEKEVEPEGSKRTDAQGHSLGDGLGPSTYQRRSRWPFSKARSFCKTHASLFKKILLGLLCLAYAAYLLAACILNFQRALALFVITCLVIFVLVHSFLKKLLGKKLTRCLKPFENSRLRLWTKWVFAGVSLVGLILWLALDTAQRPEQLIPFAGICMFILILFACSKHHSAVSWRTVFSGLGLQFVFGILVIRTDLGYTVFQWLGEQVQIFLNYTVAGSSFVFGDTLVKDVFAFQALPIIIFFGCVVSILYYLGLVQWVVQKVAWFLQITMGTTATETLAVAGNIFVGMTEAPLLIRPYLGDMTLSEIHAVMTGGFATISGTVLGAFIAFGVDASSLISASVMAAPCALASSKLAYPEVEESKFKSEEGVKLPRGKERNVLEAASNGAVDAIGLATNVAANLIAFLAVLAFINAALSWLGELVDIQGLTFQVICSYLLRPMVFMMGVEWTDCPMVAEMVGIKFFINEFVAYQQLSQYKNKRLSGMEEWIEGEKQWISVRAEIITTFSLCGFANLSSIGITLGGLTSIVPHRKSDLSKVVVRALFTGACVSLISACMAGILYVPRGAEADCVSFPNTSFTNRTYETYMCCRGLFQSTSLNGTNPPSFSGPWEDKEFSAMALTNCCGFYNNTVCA
Protocol: as §1, §2, §3

- uptake mediated by hCNT1 (recombinant hCNT1): not mediated
- uptake mediated by hCNT2 (recombinant hCNT2): not mediated
SMILES: Nc1ccn([C@@H]2CO[C@H](CO)O2)c(=O)n1 [Troxacitabine, troxacitabine]
